Test results from article PMC8213057, “Targeting ALK2: An Open Science Approach to Developing Therapeutics for the Treatment of Diffuse Intrinsic Pontine Glioma” (Journal of Medicinal Chemistry, 2020).

Key:
[1] = biological target: T1, MINK/MINK1 (Homo sapiens, UniProt Q8N4C8); experiment: 375-member kinase panel; format: biochemical; details: Run 1, Run 2; for % enzyme activity: 1 μM; for remaining activity at 1 µM: read-out: % enzyme activity, 1 μM
T1 construct: purchased Reaction Biology Corporation

[2] = biological target: CDC7/DBF4 (Homo sapiens, UniProt O00311); details: 1 μM; Run 1, Run 2
[3] = biological target: T2, LATS2 (Homo sapiens, UniProt Q9NRM7); details: 1 μM; Run 1, Run 2
T2 sequence (Q9NRM7 1-1088): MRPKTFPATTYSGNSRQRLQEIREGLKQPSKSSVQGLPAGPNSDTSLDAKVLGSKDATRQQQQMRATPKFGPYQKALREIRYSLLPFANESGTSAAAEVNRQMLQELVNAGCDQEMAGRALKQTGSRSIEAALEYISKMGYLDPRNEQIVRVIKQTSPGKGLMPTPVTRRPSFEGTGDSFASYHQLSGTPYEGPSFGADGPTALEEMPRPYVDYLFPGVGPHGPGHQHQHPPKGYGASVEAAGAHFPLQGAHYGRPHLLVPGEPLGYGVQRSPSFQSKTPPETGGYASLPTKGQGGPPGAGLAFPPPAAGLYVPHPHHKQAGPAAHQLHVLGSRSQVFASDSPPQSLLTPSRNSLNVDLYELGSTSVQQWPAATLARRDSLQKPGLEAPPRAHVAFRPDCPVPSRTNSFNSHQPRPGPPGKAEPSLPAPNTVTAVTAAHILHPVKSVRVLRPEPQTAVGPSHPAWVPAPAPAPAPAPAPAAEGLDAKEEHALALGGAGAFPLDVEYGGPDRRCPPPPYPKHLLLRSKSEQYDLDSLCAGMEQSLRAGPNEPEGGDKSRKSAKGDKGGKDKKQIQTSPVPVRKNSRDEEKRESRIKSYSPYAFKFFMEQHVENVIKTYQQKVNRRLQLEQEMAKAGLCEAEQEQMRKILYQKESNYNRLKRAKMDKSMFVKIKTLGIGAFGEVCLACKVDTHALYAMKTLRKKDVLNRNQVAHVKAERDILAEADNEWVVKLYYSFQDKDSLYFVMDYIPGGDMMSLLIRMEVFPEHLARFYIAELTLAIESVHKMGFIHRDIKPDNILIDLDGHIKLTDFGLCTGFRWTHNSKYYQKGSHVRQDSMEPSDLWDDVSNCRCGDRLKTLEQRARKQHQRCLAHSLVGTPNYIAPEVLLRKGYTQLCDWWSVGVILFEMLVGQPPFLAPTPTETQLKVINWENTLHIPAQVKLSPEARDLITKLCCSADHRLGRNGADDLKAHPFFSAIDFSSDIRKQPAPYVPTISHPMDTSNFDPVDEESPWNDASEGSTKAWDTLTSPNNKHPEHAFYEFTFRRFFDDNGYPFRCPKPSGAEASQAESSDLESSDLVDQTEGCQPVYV

[4] = biological target: MSK1/RPS6KA5 (Homo sapiens, UniProt O75582); details: 1 μM; Run 1, Run 2
[5] = biological target: NEK6 (Homo sapiens, UniProt Q9HC98); details: 1 μM; Run 1, Run 2
[6] = biological target: T3, PKD2/PRKD2 (Homo sapiens, UniProt Q9BZL6); details: 1 μM; Run 1, Run 2
T3 sequence (Q9BZL6 1-878): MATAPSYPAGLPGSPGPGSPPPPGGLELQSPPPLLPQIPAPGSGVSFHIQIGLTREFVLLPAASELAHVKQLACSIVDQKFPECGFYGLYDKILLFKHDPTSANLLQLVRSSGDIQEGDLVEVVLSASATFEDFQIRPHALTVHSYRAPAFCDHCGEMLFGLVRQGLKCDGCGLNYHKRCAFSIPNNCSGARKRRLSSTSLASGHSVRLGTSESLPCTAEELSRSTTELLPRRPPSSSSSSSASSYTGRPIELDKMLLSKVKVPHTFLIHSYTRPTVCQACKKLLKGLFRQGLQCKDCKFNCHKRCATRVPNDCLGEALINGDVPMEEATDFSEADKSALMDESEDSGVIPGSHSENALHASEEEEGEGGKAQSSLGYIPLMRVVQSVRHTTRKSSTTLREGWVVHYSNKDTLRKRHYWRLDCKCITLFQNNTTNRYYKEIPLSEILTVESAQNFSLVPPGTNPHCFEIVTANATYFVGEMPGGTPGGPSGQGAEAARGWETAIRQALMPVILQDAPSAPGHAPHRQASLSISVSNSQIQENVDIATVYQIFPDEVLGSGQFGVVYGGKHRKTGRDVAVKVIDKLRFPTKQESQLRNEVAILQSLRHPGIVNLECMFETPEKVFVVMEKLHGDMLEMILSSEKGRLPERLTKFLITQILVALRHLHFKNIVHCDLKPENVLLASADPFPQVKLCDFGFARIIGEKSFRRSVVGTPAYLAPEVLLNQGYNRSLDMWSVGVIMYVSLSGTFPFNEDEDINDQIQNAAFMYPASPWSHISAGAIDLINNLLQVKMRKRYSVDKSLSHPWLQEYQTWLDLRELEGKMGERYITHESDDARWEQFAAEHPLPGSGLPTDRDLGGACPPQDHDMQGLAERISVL

[7] = biological target: PKN1/PRK1 (Homo sapiens, UniProt Q16512); details: 1 μM; Run 1, Run 2
[8] = biological target: RIPK3 (Homo sapiens, UniProt Q9Y572); details: 1 μM; Run 1, Run 2
[9] = biological target: ERK2/MAPK1 (Homo sapiens, UniProt P28482); experiment: biochemical; details: read-out: % enzyme activity, 1 μM; Run 1, Run 2
[10] = biological target: T2, LATS2; experiment: biochemical; details: read-out: % enzyme activity, 1 μM; Run 1, Run 2
[11] = biological target: LRRK2 (Homo sapiens, UniProt Q5S007); experiment: biochemical; details: read-out: % enzyme activity, 1 μM; Run 1, Run 2
[12] = biological target: PKAcg (Homo sapiens, UniProt P22612); experiment: biochemical; details: read-out: % enzyme activity, 1 μM; Run 1, Run 2
Sequence of PKAcg (P22612 whole entry): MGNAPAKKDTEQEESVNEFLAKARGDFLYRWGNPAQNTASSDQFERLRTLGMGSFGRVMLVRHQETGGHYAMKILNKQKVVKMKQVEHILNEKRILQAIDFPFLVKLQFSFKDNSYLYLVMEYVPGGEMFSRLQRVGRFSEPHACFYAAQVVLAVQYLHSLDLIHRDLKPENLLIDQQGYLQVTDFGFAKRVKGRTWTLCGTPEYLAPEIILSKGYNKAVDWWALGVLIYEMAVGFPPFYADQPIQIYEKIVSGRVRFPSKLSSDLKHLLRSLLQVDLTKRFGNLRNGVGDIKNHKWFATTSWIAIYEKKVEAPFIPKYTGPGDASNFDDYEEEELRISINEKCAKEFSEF

T1 sequence (Q8N4C8 whole entry): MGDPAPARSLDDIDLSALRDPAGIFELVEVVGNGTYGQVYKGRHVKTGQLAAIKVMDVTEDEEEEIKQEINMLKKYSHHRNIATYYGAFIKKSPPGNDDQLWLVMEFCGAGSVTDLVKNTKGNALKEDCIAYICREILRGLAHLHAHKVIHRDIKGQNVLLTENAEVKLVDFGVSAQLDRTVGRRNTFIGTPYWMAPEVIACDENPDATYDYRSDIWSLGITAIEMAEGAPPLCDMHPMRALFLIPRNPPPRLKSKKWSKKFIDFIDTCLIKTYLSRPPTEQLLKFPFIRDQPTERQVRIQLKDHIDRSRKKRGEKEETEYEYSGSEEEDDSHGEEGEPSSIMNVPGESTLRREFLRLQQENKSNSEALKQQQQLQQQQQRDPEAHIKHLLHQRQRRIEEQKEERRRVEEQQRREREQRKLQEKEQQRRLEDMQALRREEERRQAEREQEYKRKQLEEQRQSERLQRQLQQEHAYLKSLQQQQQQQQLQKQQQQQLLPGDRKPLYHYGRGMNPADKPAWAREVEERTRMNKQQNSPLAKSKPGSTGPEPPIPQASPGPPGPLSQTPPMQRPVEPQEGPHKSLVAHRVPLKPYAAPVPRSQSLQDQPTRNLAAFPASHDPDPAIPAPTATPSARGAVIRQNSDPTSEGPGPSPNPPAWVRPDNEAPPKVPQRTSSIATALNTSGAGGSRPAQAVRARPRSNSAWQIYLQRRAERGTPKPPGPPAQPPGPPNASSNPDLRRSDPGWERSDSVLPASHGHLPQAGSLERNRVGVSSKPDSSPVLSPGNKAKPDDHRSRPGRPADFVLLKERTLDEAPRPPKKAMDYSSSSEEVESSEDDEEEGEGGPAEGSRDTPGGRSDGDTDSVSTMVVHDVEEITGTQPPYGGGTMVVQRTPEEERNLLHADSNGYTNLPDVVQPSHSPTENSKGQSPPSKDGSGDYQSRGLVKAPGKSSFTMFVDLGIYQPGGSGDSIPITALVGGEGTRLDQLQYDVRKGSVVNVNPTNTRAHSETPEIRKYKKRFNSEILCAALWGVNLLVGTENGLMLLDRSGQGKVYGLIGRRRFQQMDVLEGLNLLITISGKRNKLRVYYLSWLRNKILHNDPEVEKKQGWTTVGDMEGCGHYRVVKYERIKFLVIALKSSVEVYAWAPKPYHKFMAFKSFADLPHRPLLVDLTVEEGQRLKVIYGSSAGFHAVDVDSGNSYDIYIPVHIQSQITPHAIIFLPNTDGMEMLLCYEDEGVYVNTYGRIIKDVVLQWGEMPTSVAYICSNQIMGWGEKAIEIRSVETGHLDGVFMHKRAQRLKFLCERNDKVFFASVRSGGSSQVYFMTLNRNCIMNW
Sequence of NEK6 (Q9HC98 whole entry): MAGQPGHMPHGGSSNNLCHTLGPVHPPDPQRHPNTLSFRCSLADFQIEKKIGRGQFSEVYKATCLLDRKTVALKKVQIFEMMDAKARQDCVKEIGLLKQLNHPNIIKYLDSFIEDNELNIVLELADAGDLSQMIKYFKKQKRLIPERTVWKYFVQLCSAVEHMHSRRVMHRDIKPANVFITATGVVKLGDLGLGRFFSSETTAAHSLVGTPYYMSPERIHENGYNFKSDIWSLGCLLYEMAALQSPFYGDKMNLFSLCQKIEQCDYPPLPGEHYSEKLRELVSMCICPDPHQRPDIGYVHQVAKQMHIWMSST
Sequence of LRRK2 (Q5S007 whole entry): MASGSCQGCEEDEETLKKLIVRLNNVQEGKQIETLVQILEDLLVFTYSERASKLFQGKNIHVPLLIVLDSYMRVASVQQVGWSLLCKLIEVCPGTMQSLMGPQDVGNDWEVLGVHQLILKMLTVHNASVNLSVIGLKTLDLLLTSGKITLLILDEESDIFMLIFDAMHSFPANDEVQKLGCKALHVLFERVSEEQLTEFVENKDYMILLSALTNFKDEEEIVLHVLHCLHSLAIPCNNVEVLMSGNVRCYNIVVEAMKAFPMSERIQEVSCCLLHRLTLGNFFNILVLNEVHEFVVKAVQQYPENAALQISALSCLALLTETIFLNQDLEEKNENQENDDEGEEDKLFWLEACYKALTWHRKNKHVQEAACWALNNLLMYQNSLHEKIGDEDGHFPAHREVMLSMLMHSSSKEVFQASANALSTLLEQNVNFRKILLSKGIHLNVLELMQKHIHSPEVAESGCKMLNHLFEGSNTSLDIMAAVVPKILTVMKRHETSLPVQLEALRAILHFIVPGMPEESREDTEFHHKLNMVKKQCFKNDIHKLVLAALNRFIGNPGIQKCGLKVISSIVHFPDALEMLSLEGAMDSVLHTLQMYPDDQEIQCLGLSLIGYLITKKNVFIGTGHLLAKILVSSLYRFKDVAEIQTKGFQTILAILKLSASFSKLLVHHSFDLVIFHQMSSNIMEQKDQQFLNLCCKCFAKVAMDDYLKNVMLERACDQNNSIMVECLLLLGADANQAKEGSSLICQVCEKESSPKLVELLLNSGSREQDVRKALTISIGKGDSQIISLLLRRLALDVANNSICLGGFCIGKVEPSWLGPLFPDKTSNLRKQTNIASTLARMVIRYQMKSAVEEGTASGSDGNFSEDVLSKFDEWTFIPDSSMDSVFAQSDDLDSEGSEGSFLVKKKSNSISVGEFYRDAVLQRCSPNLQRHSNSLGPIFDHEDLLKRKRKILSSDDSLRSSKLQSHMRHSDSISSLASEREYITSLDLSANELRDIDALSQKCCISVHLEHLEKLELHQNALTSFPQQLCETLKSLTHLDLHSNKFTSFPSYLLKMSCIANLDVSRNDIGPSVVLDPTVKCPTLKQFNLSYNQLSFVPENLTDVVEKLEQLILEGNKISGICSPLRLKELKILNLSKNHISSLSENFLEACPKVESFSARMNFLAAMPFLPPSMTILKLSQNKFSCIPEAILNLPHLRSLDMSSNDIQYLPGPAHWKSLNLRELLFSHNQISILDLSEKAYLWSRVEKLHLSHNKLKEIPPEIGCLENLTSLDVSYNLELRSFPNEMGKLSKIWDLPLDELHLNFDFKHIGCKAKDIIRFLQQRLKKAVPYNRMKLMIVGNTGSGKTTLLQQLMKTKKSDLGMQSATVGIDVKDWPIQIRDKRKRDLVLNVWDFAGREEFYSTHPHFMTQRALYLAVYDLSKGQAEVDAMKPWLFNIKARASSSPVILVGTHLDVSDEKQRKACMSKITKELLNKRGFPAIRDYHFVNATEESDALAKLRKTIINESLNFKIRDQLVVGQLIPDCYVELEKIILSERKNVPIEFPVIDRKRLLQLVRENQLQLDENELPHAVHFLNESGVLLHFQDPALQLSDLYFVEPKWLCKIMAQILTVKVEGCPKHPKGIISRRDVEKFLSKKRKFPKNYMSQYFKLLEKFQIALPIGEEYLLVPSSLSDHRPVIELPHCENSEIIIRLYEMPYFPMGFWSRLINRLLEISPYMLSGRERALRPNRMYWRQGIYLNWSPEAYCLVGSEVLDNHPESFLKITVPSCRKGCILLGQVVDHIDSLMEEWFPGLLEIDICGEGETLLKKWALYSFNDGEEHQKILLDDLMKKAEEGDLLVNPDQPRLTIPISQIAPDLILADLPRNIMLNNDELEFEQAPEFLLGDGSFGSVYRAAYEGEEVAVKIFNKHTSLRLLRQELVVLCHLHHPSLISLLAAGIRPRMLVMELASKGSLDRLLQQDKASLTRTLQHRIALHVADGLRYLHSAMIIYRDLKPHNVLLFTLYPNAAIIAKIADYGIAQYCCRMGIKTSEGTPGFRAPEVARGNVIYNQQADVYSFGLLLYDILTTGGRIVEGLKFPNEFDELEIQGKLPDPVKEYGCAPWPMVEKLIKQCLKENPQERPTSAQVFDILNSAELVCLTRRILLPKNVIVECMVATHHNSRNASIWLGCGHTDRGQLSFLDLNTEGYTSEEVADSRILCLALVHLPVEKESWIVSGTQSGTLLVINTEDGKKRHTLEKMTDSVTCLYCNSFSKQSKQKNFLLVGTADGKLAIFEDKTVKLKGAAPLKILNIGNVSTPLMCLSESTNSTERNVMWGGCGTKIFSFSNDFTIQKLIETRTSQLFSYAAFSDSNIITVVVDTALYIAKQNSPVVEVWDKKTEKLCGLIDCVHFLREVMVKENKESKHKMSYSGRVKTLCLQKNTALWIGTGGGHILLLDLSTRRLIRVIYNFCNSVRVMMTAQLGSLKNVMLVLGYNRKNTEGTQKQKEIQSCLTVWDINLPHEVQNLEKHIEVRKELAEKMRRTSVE
Sequence of RIPK3 (Q9Y572 whole entry): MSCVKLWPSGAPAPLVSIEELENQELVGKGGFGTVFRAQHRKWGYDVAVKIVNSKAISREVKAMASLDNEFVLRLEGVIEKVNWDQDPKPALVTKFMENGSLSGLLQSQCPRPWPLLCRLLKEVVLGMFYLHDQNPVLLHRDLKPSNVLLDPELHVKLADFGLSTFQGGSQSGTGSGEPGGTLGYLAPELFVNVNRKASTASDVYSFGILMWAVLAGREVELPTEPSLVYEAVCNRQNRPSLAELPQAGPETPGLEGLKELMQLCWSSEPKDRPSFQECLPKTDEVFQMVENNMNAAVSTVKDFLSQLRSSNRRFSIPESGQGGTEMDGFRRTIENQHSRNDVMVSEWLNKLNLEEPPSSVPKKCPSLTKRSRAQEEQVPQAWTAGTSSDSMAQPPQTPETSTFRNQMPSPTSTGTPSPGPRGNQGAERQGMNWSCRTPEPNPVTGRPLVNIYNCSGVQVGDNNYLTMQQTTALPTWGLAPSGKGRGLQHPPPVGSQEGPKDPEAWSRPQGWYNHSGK

SMILES | % enzyme activity [1] [%] | remaining activity at 1 µM [1] [%] | % enzyme activity [2] [%] | % enzyme activity [3] [%] | % enzyme activity [4] [%] | % enzyme activity [5] [%] | % enzyme activity [6] [%] | % enzyme activity [7] [%] | % enzyme activity [8] [%] | remaining activity at 1 µM [9] [%] | remaining activity at 1 µM [10] [%] | remaining activity at 1 µM [11] [%] | remaining activity at 1 µM [12] [%]
COc1cc(-c2cncc(-c3ccc(N4C[C@@H](C)N(C)[C@@H](C)C4)cc3)c2C)cc(F)c1C(N)=O [Compound 26c, 2-Fluoro-6-methoxy-4-(4-methyl-5-(4-((3R,5S)-3,4,5-trimethylpiperazin-1-yl)phenyl)pyridin-3-yl)benzamide] | 29.65 | 30.2 | 93.55 | 100.36 | 89.44 | 103.36 | 98.89 | 96.39 | 102.83 | 89.8 | 102 | 78.3 | 101
COc1cc(-c2cncc(-c3ccc(N4CCN(C)CC4)cc3)c2C)cc(F)c1C(N)=O [Compound 26a, 2-Fluoro-6-methoxy-4-(4-methyl-5-(4-(4-methylpiperazin-1-yl)phenyl)pyridin-3-yl)benzamide] | 22.65 | 24.1 | 91.84 | 104.67 | 82.15 | 98.81 | 95.72 | 96.76 | 101.40 | 92.5 | 106 | 60.1 | 94.1
